What is called IC50 is the concentration that gives 50% inhibition.

For one assay, the target named is T1, CYP1A2 (Homo sapiens, UniProt P05177).
T1 construct: Commercially available mixed human liver microsomes were used; from tissue; host or cells: pooled human liver microsomes
T1 sequence (P05177 1-516): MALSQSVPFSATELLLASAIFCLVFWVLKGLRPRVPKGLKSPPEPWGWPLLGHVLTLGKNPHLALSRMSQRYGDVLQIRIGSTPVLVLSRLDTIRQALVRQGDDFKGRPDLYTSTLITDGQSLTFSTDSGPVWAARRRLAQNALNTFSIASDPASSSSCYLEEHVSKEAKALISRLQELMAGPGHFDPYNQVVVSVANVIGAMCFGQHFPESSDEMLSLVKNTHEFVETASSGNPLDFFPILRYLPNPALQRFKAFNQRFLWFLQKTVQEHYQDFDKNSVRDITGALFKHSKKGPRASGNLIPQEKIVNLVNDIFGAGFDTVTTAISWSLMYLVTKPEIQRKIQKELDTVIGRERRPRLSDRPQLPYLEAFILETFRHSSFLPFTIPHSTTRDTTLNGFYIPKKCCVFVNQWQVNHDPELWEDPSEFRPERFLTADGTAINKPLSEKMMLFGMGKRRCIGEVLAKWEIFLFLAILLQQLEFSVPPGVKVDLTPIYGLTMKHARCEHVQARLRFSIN
Put plainly: CYP enzyme inhibition, human liver microsomes, CYP1A2. Format: in vitro ADME. Conditions: probe substrate Phenacetin; for IC50: read-out: IC50 CYP 1A2. As to the method:
Commercially available mixed human liver microsomes were used, with the liver microsome concentrations of diclofenac, dextromethorphan, and midazolam being 0.1 mg/mL; and the liver microsome concentrations of phenacetin, bupropion, amodiaquine, mephenytoin, and testosterone being 0.2 mg/mL. Probe substrate, specific inhibitor and test compound (ABX464, compound 18) were diluted to the corresponding concentration of working solution for use. A mixed solution containing liver microsomes, MgCl2, substrate, […] inhibitor, and the test compound was prepared. After the incubation, 600 μL of ice-cold ACN working solution containing IS was added to terminate the reaction, and the mixture was centrifuged and used for LC-MS/MS detection. [table] At different concentrations of the test compound or positive inhibitor, the percentage of remaining activity is determined by the ratio of the amount of characteristic metabolites of the probe substrate generated to the corresponding amount generated in the absence of the test compound or positive inhibitor. If a significant decrease in the amount of metabolite production is found at the highest concentration setting point, the half inhibitory concentration (IC50) will be calculated using the log(inhibitor) vs. response—Variable slope formula of GraphPad Prism software: Y=Bottom+(Top−Bottom)/(1+10^((Log IC50−X)*Hillslope)) • X: Log (test compound or positive inhibitor concentration); • Y: Remaining activity percentage; • Top and Bottom: refer to the theoretical maximum and minimum remaining activity percentages respectively; and • Hillslope: slope coefficient or slope. If there is no significant decrease in metabolite production at the highest concentration setting point (percentage of enzyme remaining activity […]), the half inhibitory concentration (IC50) cannot be accurately calculated, and the reported IC50 is greater than the highest concentration tested.
For orientation: Liver microsomes are vesicles of endoplasmic reticulum, rich in cytochrome P450 enzymes.

Another assay addresses T2, CYP2C9 (Homo sapiens, UniProt P11712).
T2 construct: Commercially available mixed human liver microsomes were used; from tissue; host or cells: pooled human liver microsomes
Put plainly: CYP enzyme inhibition, human liver microsomes, CYP2C9. Format: in vitro ADME. Conditions: probe substrate Diclofenac, read-out: IC50 CYP 2C9. As to the method: (§1) Commercially available mixed human liver microsomes were used, with the liver microsome concentrations of diclofenac, dextromethorphan, and midazolam being 0.1 mg/mL; and the liver microsome concentrations of phenacetin, bupropion, amodiaquine, mephenytoin, and testosterone being 0.2 mg/mL. Probe substrate, specific inhibitor and test compound (ABX464, compound 18) were diluted to the corresponding concentration of working solution for use. A mixed solution containing liver microsomes, MgCl2, substrate, […] inhibitor, and the test compound was prepared. After the incubation, 600 μL of ice-cold ACN working solution containing IS was added to terminate the reaction, and the mixture was centrifuged and used for LC-MS/MS detection. [table] At different concentrations of the test compound or positive inhibitor, the percentage of remaining activity is determined by the ratio of the amount of characteristic metabolites of the probe substrate generated to the corresponding amount generated in the absence of the test compound or positive inhibitor. […]

For the next assay, the system named is DSS colitis model. Put plainly: In vivo efficacy in 3% DSS colitis model in mice. Also on record: species or system male C57BL/6 mice. Conditions: for Colon length / Colon weight / Pathological score: D0-D11, DSS colitis mice; for Colon length / Colon weight: D11; for Pathological score: colon HE staining. As to the method: In this experiment, male C57BL/6 mice (from Jiangsu Jicui Pharmaceutical Biotechnology Co., Ltd.) were used to establish a colitis model by freely drinking 3% DSS water. After the adaptive feeding of mice, they were randomly divided into 4 groups according to their body weight: normal control group, DSS enteritis model group, compound 18-10 mg/kg group, and ABX464-40 mg/kg group. The day of grouping was recorded as DO. On D0-D8, mice in G2-G4 groups were given 3% DSS drinking water, which was changed every 3 days. On D9-D11, mice in G2-G4 groups were given normal drinking water. The corresponding solvents and drugs were intragastrically administered for 11 consecutive days from D0 to D11. From D0 to D11, mice in the G1 group received normal diet and water, and were given blank-vehicle for 11 consecutive days. The mice were observed daily from D0 to D11, their weights were recorded, diarrhea scores and bloody stool scores were measured daily, and the DAI values were calculated. On D11, mice were euthanized, colon tissue was obtained, colon length was measured, colon weight was weighed, and photos were taken. The colon tissues were subjected to HE staining and pathological analysis. Statistical analysis: Independent sample T test was used. #: P<0.05 compared with the normal control group; ##: P<0.01 compared with the normal control group; ###: P<0.001 compared with the normal control group. *: P<0.05 compared with the model control group; **: P<0.01 compared with the model control group; ***: P<0.001 compared with the model control group.

The next assay concerns the target T3, CYP2C19 (Homo sapiens, UniProt P33261).
T3 construct: Commercially available mixed human liver microsomes were used; from tissue; host or cells: pooled human liver microsomes
Put plainly: CYP enzyme inhibition, human liver microsomes, CYP2C19. It counts as in vitro ADME. The following applies: probe substrate S-Mephenytoin, read-out: IC50 CYP 2C19. As to the method: as §1

A further assay has as its target T4, CYP2B6 (Homo sapiens, UniProt P20813).
T4 construct: Commercially available mixed human liver microsomes were used; from tissue; host or cells: pooled human liver microsomes
T4 sequence (P20813 1-491): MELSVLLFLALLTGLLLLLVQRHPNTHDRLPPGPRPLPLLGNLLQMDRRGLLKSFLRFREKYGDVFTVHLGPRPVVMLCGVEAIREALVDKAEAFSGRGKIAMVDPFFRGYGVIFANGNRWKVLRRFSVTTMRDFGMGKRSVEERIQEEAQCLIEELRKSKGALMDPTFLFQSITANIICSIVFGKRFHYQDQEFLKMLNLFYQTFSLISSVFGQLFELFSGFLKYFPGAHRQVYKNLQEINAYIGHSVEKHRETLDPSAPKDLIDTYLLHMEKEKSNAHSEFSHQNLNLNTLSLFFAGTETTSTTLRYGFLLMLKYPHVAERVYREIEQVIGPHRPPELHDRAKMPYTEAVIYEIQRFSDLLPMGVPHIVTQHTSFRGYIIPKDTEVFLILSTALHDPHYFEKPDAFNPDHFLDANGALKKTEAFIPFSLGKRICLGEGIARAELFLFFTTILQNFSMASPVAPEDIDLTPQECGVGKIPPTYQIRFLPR
Put plainly: CYP enzyme inhibition, human liver microsomes, CYP2B6. It counts as in vitro ADME. Conditions: probe substrate Bupropion, read-out: IC50 CYP 2B6. As to the method: as §1

Where [1] appears, read: 10 mg/kg o.p. QD, listed as compound 18.
The mark [2] stands for this setting: 10 mg/kg o.p. QD, DSS colitis mice.

Each structure is given as a SMILES string. Marks after values point to notes of the source that are not given here. A value given as a limit tells only on which side of the number the result lay.

T2 sequence (P11712 whole entry): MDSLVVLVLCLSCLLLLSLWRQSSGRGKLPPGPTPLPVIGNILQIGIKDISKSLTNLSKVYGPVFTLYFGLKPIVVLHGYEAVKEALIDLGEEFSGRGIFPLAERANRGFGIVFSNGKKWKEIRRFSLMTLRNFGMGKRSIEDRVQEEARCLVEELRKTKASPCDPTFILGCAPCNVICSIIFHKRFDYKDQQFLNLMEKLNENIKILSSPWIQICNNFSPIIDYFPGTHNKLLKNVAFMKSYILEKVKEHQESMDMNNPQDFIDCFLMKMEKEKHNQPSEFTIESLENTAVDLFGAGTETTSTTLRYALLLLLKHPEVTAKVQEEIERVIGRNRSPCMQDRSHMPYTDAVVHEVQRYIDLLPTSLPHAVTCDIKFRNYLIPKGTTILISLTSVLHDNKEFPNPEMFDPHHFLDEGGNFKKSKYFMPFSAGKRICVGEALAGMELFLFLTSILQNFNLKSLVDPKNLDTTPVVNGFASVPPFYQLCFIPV
T3 sequence (P33261 whole entry): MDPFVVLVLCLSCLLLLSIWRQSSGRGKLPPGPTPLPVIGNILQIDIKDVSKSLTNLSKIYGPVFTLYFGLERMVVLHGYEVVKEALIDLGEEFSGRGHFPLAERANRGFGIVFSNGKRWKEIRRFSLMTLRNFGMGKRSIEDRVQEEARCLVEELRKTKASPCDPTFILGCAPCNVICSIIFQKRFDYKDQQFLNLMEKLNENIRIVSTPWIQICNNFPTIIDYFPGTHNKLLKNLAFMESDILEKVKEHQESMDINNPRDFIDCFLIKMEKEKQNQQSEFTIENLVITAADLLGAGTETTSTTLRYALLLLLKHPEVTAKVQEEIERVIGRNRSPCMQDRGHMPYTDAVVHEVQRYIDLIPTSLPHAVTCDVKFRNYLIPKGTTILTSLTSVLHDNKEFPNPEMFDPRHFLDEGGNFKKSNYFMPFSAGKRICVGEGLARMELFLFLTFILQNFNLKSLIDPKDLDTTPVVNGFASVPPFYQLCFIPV

As for `FC(F)(F)Oc1ccc(Nc2ccc3cccc(Cl)c3n2)cc1` [ABX464, reference compound], the 50% inhibitory concentration (IC50) at CYP1A2 turned out to be 0.097 µM; at CYP2C9, 15.1 µM; at CYP2C19 it was 4.92 µM; at CYP2B6, 86.7 µM. Moreover, the “DAI score compared with DSS enteritis model control group” value in the assay with DSS colitis model (40 mg/kg o.p. QD, DSS colitis mice) is recorded as “significantly reduced”.

As for `Fc1cc(Cl)c2nc(Nc3ccc(C4(C(F)(F)F)CC4)cc3)ccc2c1` [Compound 18, 8-chloro-6-fluoro-N-(4-(1-(trifluoromethyl)cyclopropyl)phenyl)quinolin-2-amine], at CYP1A2, the “IC50 CYP 1A2” value is recorded as “significantly superior to ABX464” and the half-maximal inhibitory concentration (IC50) came to 21.6 µM. Besides, the 50% inhibitory concentration (IC50) on CYP2C9 came out at 20.2 µM. Also, in the assay on DSS colitis model (10 mg/kg o.p. QD), the Colon length is recorded as 6.6*** cm, the Colon weight is 0.3710** g and the Pathological score amounted to 4.00. Moreover, in the assay on DSS colitis model (setting [1]), the Colon length entry is recorded as “significantly increased”, the Colon weight result is “significantly increased” and the Pathological score entry is given as “significantly reduced”. In the assay with DSS colitis model (setting [2]), the “Body weight of mice compared with DSS enteritis model control group” value is reported as “significantly increased” and the “DAI score compared with DSS enteritis model control group” value was “significantly reduced”. Also, the IC50 at CYP2C19 was found to be 5.69 µM. Besides, the IC50 at CYP2B6 is over 100 µM.
